Source: patent US10577346B2, “Benzobicycloalkane derivatives, their preparation and pharmaceutical use thereof” (priority 2016, dated 2020)

Key:
CYP3A4 = molecular target: T1, CYP3A4 (Homo sapiens, UniProt P08684); assay: Inhibition of CYP enzyme (CYP3A4, midazolam substrate, liver microsomes); format: in vitro ADME; conditions: for inhibition at 5 min, 1 μM: human, pH 7.4, midazolam (M) as probe substrate; for CYP3A4(M) inhibition rate/1 μM: midazolam (M) as probe substrate
T1 construct: from tissue; host or cells: liver microsomes
Method: Assay 3: Inhibition of CYP Enzyme
1. 0.1 M potassium phosphate buffer (K-buffer), pH 7.4 was preheated;
100 mM K-Buffer: 9.5 mL Stock A and 40.5 mL Stock B were mixed, brought to a total volume of 500 mL with Milli-Q water, and titrated to pH 7.4 of KOH or H3PO4;
Stock A (1 M monobasic potassium phosphate): 136.5 g of monobasic potassium phosphate was dissolved in 1 L of Milli-Q water; and
Stock B (1 M dibasic potassium phosphate): 174.2 g of dibasic potassium phosphate was dissolved in 1 L of Milli-Q water.
2. Serial dilutions of test compounds and reference inhibitors (400×) were prepared in a 96-well plate:
2.1 8 μL of 10 mM test compounds was transferred to 12 μL of ACN. 2.2 A separate inhibitor solution was prepared for reference: 8 μL of inhibitor DMSO stock was added with 12 μL of ACN.
2.3 A 1:3 serial dilution was prepared with a DMSO:ACN mixture (v/v: 40:60).
3. 4×NADPH cofactor (66.7 mg NADPH dissolved in 10 mL 0.1 M K-buffer, pH 7.4) was prepared.
4. 4× substrate (2 mL for each isoform) was prepared as indicated in the table below (Liver microsomes must be added on ice).
5. 0.2 mg/mL liver microsome solution (990 μL of 0.1 M K-buffer was added to each 10 μL of 20 mg/mL) was prepared on ice.
6. 200 μL of 0.2 mg/mL liver microsomes was added on ice to a 96-well plate and then 1 μL of test compound or reference compound was added into corresponding wells.
7. The following solutions were added to a 96-well plate (in duplicate) on ice:
7.1 30 μL of 2× test compounds and reference compound in 0.2 mg/mL liver microsome solution were added;
7.2 15 μL of 4× substrate solution was added.
8. The 96-well assay plate and NADPH solution were pre-heated at 37° C. for 5 minutes.
9. 15 μL of pre-heated 8 mM NADPH solution was added into the assay plates to initiate the reaction.
10. The 3A4 subtype was incubated at 37° C. for 5 min for.
11. The reaction was quenched by adding 120 μL of ACN containing an internal standard.
12. After quenching, the plates were shaked in a vibrator (IKA, MTS 2/4) for 5 min (600 rpm/min) and then centrifuged at 3, 750 rpm for 15 min (Allegra X-12R centrifuge).
13. After centrifugation, 50 μL of the supernatant from each well was taken into a 96-well plate containing 70 μL of wastons water and mixed for LC/MS analysis.

hERG potassium channel = molecular target: T2, hERG potassium channel (Homo sapiens, UniProt Q12809); assay: Inhibition of hERG potassium ion channel, manual whole-cell patch clamp in CHO hERG cells; format: cell-based; conditions: human, CHO cells stably expressing hERG
T2 construct: host or cells: CHO cells stably expressing hERG
Method: (§1) Assay 2: Inhibition of hERG Potassium Ion Channel
(§2) 2.1.1 Cells used in this experiment were CHO cell lines transfected with hERG cDNA and stably expressing hERG channels (supplied by Sophion Bioscience, Denmark), with cell progeny being P15. Cells were cultured in medium containing the following ingredients Invitrogen): Ham's F12 medium, 10% (v/v) inactivated fetal bovine serum, […] hygromycin B, and […] Geneticin.
(§3) 2.1.2 CHO hERG cells were grown in Petri dishes containing the above medium and cultured in an incubator of 5% CO2 at 37° C. CHO hERG cells were transferred onto round glass plates in Petri dishes and grown on the same culture medium and culture conditions as above 24 h to 48 h prior to the electrophysiological experiments. The density of CHO hERG cells on each round glass plate must meet the requirements that the vast majority of cells are independent and separate.
(§4) 2.2 Experimental Solution
(§5) The following solutions (recommended by Sophion) were used for electrophysiological recording. The reagents used in this test were provided by Sigma.
(§6) 2.3 Electrophysiological Recording System
(§7) In this experiment, whole-cell current recording was performed using a manual patch clamp system (HEKA EPC-10 signal amplification and digital conversion system, purchased from HEKA Electronic, Germany). The round glass slide of which surface CHO hERG cells were grown on was placed in an electrophysiological recording slot under an inverted microscope. Extracellular fluid was perfused continuously in the recording slot (approximately 1 ml per minute). Conventional whole-cell patch clamp current recording technique was used in the experiment. Unless otherwise specified, the experiments were performed at normal room temperature (25° C.). Cell patch clamp at −80 mV. Cell patch clamp voltage was depolarized to +20 mV to activate hERG potassium channel, and to −50 mV after 5 sec to eliminate inactivation and generate tail currents. The tail current peak was used as a value for hERG current. When the hERG potassium current recorded in the above steps became steady under continuous perfusion of the extracellular fluid in the recording slot, the subject drug to be tested could be added to the perfusion until the inhibition of the hERG current by the drug reached a steady state. Typically, the most recent three consecutive current recording lines were generally used as a measure to determine whether the state was stable. After reaching a steady state, it was perfused with extracellular fluid for washing until the hERG current returned to the value before the drug adding. One or more drugs, or multiple concentrations of the same drug, could be tested on a single cell but it was necessary to rinse with extracellular fluid before testing a different drug. Cisapride (purchased from Sigma) was used as a positive control in the experiments to ensure normal quality of the cells used.
(§8) 2.4 Treatment and Dilution of Compounds
(§9) The compound was first dissolved in DMSO to a concentration of 10 mM and then the compound was diluted 1000-fold to a final test concentration of 10 μM using extracellular fluid.
(§10) The final concentration of DMSO in the compound test solution was 0.1%. The test concentration of cisapride as a positive control was 0.1 μM. All stock solutions and test solutions were subjected to regular 5-10 minutes of sonication and shaking to ensure complete dissolution of the compound.
(§11) The test data were analyzed by the data analysis software provided by HEKA Patchmaster (V2x73.2), Microsoft Excel and Graphpad Prism 5.0.

[1] = molecular target: T3, hERG potassium ion channel (Homo sapiens, UniProt Q12809); assay: as above; format: cell-based; conditions: CHO cells stably expressing hERG
T3 construct: host or cells: CHO cells stably expressing hERG
Method: as §1, §2, §3, §4, §5, §6, §7, §8, §9, §10, §11

T3 sequence (Q12809 whole entry): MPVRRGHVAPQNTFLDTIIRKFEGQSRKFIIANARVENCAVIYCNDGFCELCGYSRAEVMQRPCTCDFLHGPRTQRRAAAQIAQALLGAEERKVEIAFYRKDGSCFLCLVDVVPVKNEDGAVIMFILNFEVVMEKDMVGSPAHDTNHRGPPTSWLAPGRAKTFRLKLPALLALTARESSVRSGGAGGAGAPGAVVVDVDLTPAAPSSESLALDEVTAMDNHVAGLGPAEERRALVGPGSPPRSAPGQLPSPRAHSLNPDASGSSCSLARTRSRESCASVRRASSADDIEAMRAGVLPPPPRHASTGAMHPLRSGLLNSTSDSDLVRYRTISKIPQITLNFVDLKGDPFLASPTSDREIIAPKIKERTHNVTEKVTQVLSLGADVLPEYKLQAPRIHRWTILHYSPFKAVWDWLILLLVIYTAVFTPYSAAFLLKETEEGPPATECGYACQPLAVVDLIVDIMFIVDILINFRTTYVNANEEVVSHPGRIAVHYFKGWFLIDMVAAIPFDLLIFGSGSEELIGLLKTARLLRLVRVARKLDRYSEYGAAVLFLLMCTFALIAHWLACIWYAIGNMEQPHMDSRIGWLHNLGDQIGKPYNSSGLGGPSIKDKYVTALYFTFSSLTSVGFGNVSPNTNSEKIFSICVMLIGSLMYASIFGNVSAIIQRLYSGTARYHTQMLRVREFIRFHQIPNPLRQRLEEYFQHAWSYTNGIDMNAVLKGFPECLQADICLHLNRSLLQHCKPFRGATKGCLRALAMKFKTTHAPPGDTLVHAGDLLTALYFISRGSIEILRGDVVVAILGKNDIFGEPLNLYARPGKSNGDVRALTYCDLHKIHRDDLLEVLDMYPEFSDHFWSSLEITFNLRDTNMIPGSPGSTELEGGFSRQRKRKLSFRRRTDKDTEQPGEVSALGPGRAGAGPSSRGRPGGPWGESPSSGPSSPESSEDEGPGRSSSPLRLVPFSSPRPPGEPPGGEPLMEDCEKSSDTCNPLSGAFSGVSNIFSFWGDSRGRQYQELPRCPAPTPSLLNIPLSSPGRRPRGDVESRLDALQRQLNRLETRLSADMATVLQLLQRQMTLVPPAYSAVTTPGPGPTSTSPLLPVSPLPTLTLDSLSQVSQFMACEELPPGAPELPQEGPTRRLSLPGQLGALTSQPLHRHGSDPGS
T1 sequence (P08684 whole entry): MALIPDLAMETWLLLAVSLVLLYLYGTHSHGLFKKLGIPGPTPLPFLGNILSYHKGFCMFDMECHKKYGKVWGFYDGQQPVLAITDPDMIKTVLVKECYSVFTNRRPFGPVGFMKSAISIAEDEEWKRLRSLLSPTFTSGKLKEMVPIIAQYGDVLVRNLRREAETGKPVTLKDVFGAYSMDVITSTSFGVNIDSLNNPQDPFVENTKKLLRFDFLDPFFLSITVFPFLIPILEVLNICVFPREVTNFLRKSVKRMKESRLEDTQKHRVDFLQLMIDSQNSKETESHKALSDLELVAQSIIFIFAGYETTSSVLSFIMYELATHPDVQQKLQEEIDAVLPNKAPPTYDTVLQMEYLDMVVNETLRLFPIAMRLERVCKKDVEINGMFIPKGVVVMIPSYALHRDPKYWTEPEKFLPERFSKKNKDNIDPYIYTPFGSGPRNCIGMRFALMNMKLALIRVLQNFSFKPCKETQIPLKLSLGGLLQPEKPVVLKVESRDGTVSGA
T2 sequence (Q12809 whole entry): as the sequence (Q12809 whole entry) above

SMILES	inhibition at 5 min, 1 μM (CYP3A4)	inhibition at 10 μM (hERG potassium channel)	hERG inhibition rate/10 μM [1]	CYP3A4(M) inhibition rate/1 μM (CYP3A4)
CN1CCN(C(=O)Oc2ccc3c(c2)[C@@]2(C)CCCCC[C@@H](C3)[C@@H]2N)CC1 [Compound Z-2]	19.8%			
COCCOCCN(C)C(=O)Oc1ccc2c(c1)[C@@]1(C)CCCCC[C@@H](C2)[C@@H]1N [Compound Z-14]	49.5%			
COCCCNC(=O)Oc1ccc2c(c1)[C@@]1(C)CCCCC[C@@H](C2)[C@@H]1N [Compound Z-19]	33.6%			
C[C@@]12CCCCC[C@@H](Cc3ccc(OC(=O)Nc4ccc(O)cc4)cc31)[C@@H]2N [Compound Z-23]	89.2%	71.5%		
C[C@@]12CCCCC[C@@H](Cc3ccc(OC(=O)Nc4ccc(F)cc4)cc31)[C@@H]2N [Compound Z-35]	88.1%			
CN(CC(=O)O)C(=O)Oc1ccc2c(c1)[C@@]1(C)CCCCC[C@@H](C2)[C@@H]1N [Compound Z-100]	1.6%			
C[C@@]12CCCCC[C@@H](Cc3ccc(OC(=O)N4CCC(N5CCOCC5)CC4)cc31)[C@@H]2N [Compound Z-109]			17.20%	6.6%
C[C@@]12CCCCC[C@@H](Cc3ccc(OC(=O)NC4CCOCC4)cc31)[C@@H]2N [Compound Z-110]			13.32%	28.0%
COC1CN(C(=O)Oc2ccc3c(c2)[C@@]2(C)CCCCC[C@@H](C3)[C@@H]2N)C1 [Compound Z-111]				45.7%
CCN(CCN(C)C)C(=O)Oc1ccc2c(c1)[C@@]1(C)CCCCC[C@@H](C2)[C@@H]1N [Compound Z-113]			16.02%	28.6%
C[C@@]12CCCCC[C@@H](Cc3ccc(OC(=O)N4CC(O)C4)cc31)[C@@H]2N [Compound Z-114]			17.07%	11.8%
CC12CCCCCC(Cc3ccc(OC(=O)NC4CC(O)C4)cc31)C2N (centres unmarked) [Compound Z-115]			12.90%	18.0%
C[C@@]12CCCCC[C@@H](Cc3ccc(OC(=O)N4CCS(=O)(=O)CC4)cc31)[C@@H]2N [Compound Z-116]			11.22%	14.2%
C[C@@]12CCCCC[C@@H](Cc3ccc(OC(=O)NC4COC4)cc31)[C@@H]2N [Compound Z-117]			20.59%	23.8%
C[C@@]12CCCCC[C@@H](Cc3ccc(OC(=O)NCCO)cc31)[C@@H]2N [Compound Z-118]				8.8%
COc1ccc(NC(=O)Oc2ccc3c(c2)[C@@]2(C)CCCCC[C@@H](C3)[C@@H]2N)nc1 [Compound Z-119]			78%	
C[C@@]12CCCCC[C@@H](Cc3ccc(OC(=O)NC4(CO)CC4)cc31)[C@@H]2N [Compound Z-122]			1.91%	17.0%

SMILES	inhibition at 5 min, 1 μM (CYP3A4)	inhibition at 10 μM (hERG potassium channel)	hERG inhibition rate/10 μM [1]	CYP3A4(M) inhibition rate/1 μM (CYP3A4)
CN(C)C1CCN(C(=O)Oc2ccc3c(c2)[C@@]2(C)CCCCC[C@@H](C3)[C@@H]2N)CC1 [Compound Z-123]			8.84%	0%
C[C@@]12CCCCC[C@@H](Cc3ccc(OC(=O)N4CCC(O)CC4)cc31)[C@@H]2N [Compound Z-124]				19.6%
CC(=O)N1CCN(C(=O)Oc2ccc3c(c2)[C@@]2(C)CCCCC[C@@H](C3)[C@@H]2N)CC1 [Compound Z-125]				18.1%
CC(CO)NC(=O)Oc1ccc2c(c1)C1(C)CCCCCC(C2)C1N (centres unmarked) [Compound Z-126]			4.92%	3.6%
CN(CCO)C(=O)Oc1ccc2c(c1)[C@@]1(C)CCCCC[C@@H](C2)[C@@H]1N [Compound Z-127]			9.95%	17.4%
C[C@@]12CCCCC[C@@H](Cc3ccc(OC(=O)N4CCC(CO)CC4)cc31)[C@@H]2N [Compound Z-128]				41.9%
CC1CNCCN1C(=O)Oc1ccc2c(c1)C1(C)CCCCCC(C2)C1N (centres unmarked) [Compound Z-129]				4.0%
C[C@@]12CCCCC[C@@H](Cc3ccc(OC(=O)N4CCC(C(=O)O)CC4)cc31)[C@@H]2N [Compound Z-130]			3.24%	13.0%
CCN(C(=O)Oc1ccc2c(c1)[C@@]1(C)CCCCC[C@@H](C2)[C@@H]1N)C1CCN(C)CC1 [Compound Z-131]			39.88%	26.7%
COC(=O)C1CCCN(C(=O)Oc2ccc3c(c2)C2(C)CCCCCC(C3)C2N)C1 (centres unmarked) [Compound Z-135]				21.3%
CC12CCCCCC(Cc3ccc(OC(=O)N4CCCC(C(=O)O)C4)cc31)C2N (centres unmarked) [Compound Z-136]				0%
C[C@@]12CCCCC[C@@H](Cc3ccc(OC(=O)N4CCC4)cc31)[C@@H]2N [Compound Z-137]				45.3%
C[C@@]12CCCCC[C@@H](Cc3ccc(OC(=O)NC(CO)CO)cc31)[C@@H]2N [Compound Z-138]				0%
CN1CCC(NC(=O)Oc2ccc3c(c2)[C@@]2(C)CCCCC[C@@H](C3)[C@@H]2N)CC1 [Compound Z-140]				8.7%
CN(C(=O)Oc1ccc2c(c1)[C@@]1(C)CCCCC[C@@H](C2)[C@@H]1N)C1COC1 [Compound Z-141]				30.8%
CN(C)CCNC(=O)Oc1ccc2c(c1)[C@@]1(C)CCCCC[C@@H](C2)[C@@H]1N [Compound Z-144]				22.2%
